Data published in publication PMC10671074, “Tumor Regression upon Intratumoral and Subcutaneous Dosing of the STING Agonist ALG-031048 in Mouse Efficacy Models” (International Journal of Molecular Sciences, 2023).
Read-outs that look alike come from different tables or passages of the source. Marks after values point to notes of the source that are not given here.

Columns and labels:
[1] = Liver microsomal stability, mouse; type: in vitro ADME; conditions: pH 7.4, 0.5 mg/mL mouse liver microsomes, 37 °C, read-out: Liver Microsome t½, Mouse
Description: (§1) The liver microsomal stability assay was carried out in 96-well microtiter plates. The test compounds at 5 µM and the reference compound (verapamil) at 1 µM final concentration were incubated separately at 37 °C with 0.5 mg/mL liver microsomes, with or without 1 mM NADPH in 100 mM potassium phosphate buffer, pH 7.4 with 3.3 mM MgCl2. […] At each of the time points (0, 15, 30, and 60 min), the enzymatic reaction was terminated with the addition of 150 μL of quenching solution (100% acetonitrile, 0.1% formic acid, and the internal standard), and subsequently the mixtures were vortexed vigorously for 20 min and centrifuged at 4000 rpm at 10 °C. The supernatants (80 µL) were transferred to a clean 96-well plate and analyzed via LC/MS/MS. The peak area ratios of each test compound over the internal standard were plotted against incubation time, and the t½ was calculated from the curve assuming first-order kinetics.

[2] = test system: EMT-6 murine mammary carcinoma; experiment: Re-challenge with EMT-6 of mice with complete CT26 tumor regression; type: in vivo, mouse; conditions: Figure 5D; previously 100 μg IT × 3; EMT-6 right flank
Description: Ten naïve, age-matched female BALB/c mice were used as controls. […] Tumor growth was measured as described above.

[3] = test system: primary human immature dendritic cells; experiment: Activation of primary human immature dendritic cells (CD83/CD86 flow cytometry); type: cell-based; conditions: for EC50: Homo sapiens, Dendritic cell, iDCs, 72 h after stimulation
Source text: Frozen human PBMCs (100 × 10^6 cells) were obtained from Stem Cell Technologies (Kent, WA, USA). Monocytes were purified from PBMCs using a CD14^+ pan-monocyte-negative isolation kit and an LS column (Miltenyi Biotec, Bergisch Gladbach, Germany). Magnetically labeled non-target cells were depleted by retaining them within a MACS column in the magnetic field of a MACS Separator, while highly purified unlabeled CD1 D16^− cells were collected and used to generate dendritic cells. To obtain immature monocyte-derived dendritic cells (iMDDCs), enriched monocytes were cultured in Mo-DC differentiation medium (Miltenyi Biotec) supplemented with human IL-4 (250 IU/mL, Miltenyi Biotec) and human GM-CSF (800 IU/mL, Miltenyi Biotec) at 37 °C in a T-150 flask in a 5% CO2 humidified incubator for 5 days; fresh media was replenished every 2–3 days.
[…] An aliquot of iMDDCs was also cultured in maturation media for 24–48 h and used as a control containing RPMI 1640, 10% FBS, 2 mM L-glutamine, and human TNF-α (6000 IU/mL, Miltenyi Biotec). The supernatant from the plate was frozen to assess cytokine production, and cells were analyzed via flow cytometry.
Cells were incubated with phosphate-buffered saline (PBS) containing 2% FBS and 2 mM of EDTA (FACS buffer) supplemented with 2 mg/mL of normal human IgG on ice for 15 min to block Fc receptors. The cell suspension was then incubated with a predetermined optimal concentration of the appropriate fluorescent dye-labeled monoclonal antibodies (mAbs) against human cell surface markers on ice for 30 min. The fluorescent dye-labeled mAbs against human cell surface molecules included anti-CD209, anti-CD14, anti-CD11c, anti-CD40, anti-HLA-DR, anti-CD86, and anti-CD83 (BD Biosciences, Franklin Lakes, NJ, USA or BioLegend, San Diego, CA, USA). In addition, a fixable live/dead stain (Thermo Fisher Scientific) at a dilution of 1:1000 was added to exclude dead cells. After several washes with FACS buffer, cells were resuspended in FACS buffer and analyzed on an Attune Nxt flow cytometer (Thermo Fisher Scientific) with FlowJo v10 software (BD Biosciences). An aliquot of the cells to be analyzed served as controls by using “fluorescent minus-one” to establish gates and determine the frequency of positively stained cells. Ultra-comp beads (Thermo Fisher Scientific) were used as single-stained controls to set up compensation on the flow cytometer.

Plasma stability, mouse = type: in vitro ADME; conditions: 37 °C, read-out: Plasma t½, Mouse
Description: The plasma stability assay was carried out on 96-well microtiter plates. The test compounds at 5 µM and the reference compound (propantheline) at 1 µM final concentration were incubated separately at 37 °C with mouse or human plasma for 0, 30, 60, and 240 min. At the end of each incubation time point, 300 μL of the quenching solution (50% acetonitrile, 50% methanol, and 0.05% formic acid) containing the internal standard was added to each well. The incubation plates were sealed, vortexed, and centrifuged at 4 °C for 15 min at 4000 rpm. The supernatant was transferred to fresh plates for LC/MS/MS analysis of the test compounds. The peak area ratios of each test compound over the internal standard were plotted against incubation time, and the t½ was calculated from the curve assuming first-order kinetics.

subcutaneous CT26 tumors = conditions: for Delay of tumor growth compared with vehicle / Delayed Response (TV > 10 and <2000 mm^3) / Treatment Failure (TV > 2000 mm^3) / Complete Response (TV < 10 mm^3) / Median Time to Endpoint: 3 × q3d; for Median Time to Endpoint: vehicle 17.0
Description: Each mouse was inoculated subcutaneously in the right flank with 3 × 10^5 CT26 cells (in 0.1 mL PBS) for tumor development.
PBS was used as the vehicle control. […] Vehicles and test compounds were administered IT q3d × 3 in a volume of 0.05 mL. SC administration was performed between the shoulder blades at a dosing volume of 10 mL/kg. Tumors were measured twice a week in two dimensions using calipers, and volume was calculated using Formula (1):Tumor Volume (mm^3) = 0.5 (w^2 × l)(1)
Here, w = width and l = length, in mm, of a tumor.
Tumor weight was estimated with the assumption that 1 mg is equivalent to 1 mm^3 of tumor volume.
Animals were euthanized when (1) their tumor reached the endpoint volume of 2000 mm^3, (2) their body weight loss exceeded 30%, or (3) on the last day of the study, whichever came first. The TTE for analysis was calculated for each mouse by the following Equation (2):TTE = (log10 (endpoint volume) − b)/m(2)
TTE is expressed in days, endpoint volume is expressed in mm^3, b is the intercept, and m is the slope of the line obtained via linear regression of a log-transformed tumor growth data set. […] Animals were weighed on Days 1–5, then twice weekly for the duration of the study.

[4] = Liver microsomal stability, human; type: in vitro ADME; conditions: pH 7.4, 0.5 mg/mL human liver microsomes, 37 °C, read-out: Liver Microsome t½, Human
Description: as §1

[5] = test system: HEK 293 cells lacking functional STING; experiment: HEK 293 STING Dual Null IRF reporter assay
Description: Assays were set up after allowing cells to adhere for 48 h. Compounds dissolved in water were serially diluted in dosing buffer containing 10 µg/mL of digitonin (MP Biomedicals, Solon, OH, USA). Media were aspirated from the cells, and 50 µL of buffer with compound was added in triplicate. […] The next day, 20 µL of media was transferred to two new plates, and either 50 µL of QuantiLuc™ (Invivogen) to measure IFN-β expression or 80 µL of QuantiBlue™ (Invivogen) to measure IRF activity were added. […] An aliquot of 100 µL of CellTiter-Glo® (Promega, Madison, WI, USA) was added to the original plate still containing the cells, and luminescence was determined to measure viability. All readouts were measured on an Envision plate reader from Perkin Elmer. Data were analyzed using GraphPad™ Prism’s version 8.0 [Agonist] vs. response—variable slope (four parameters) model.
with increasing concentrations of the STING agonists or IFN‐β. After 24 hours, IRF reporter activity

[6] = Table 2 study, 25 μg IT, n = 10
[7] = Table 2 study, 100 μg IT, n = 10
[8] = Table 3/4 study, 25 μg IT, n = 10

In the case of `CO[C@H]1[C@H]2OP(=O)(O)OC[C@@]34C[C@@H]3[C@@H](n3cnc5c(N)ncnc53)[C@H](O)[C@@H]4O[P@](=O)(S)OC[C@H]1O[C@H]2n1cnc2c(=O)[nH]c(N)nc21` [ALG-031048], the half-life at 5 µM [1] is reported as > 8 h, the “EMT-6 tumor growth after re-challenge” value [2] is reported as “formed in these animals with kinetics comparable to those of naïve animals” and the EC50 ([3]; read-out: EC50 CD83, Immature Dendritic Cells) is reported as 5.3 µM. The EC50 ([3]; read-out: EC50 CD86, Immature Dendritic Cells) was 17.8 µM, the “Surface expression of CD86 and CD83 (in words)” value ([3]; iDCs and, to a lesser degree, monocytes, 24 and 72 h) was “upregulated the surface expression of CD86 and CD83” and the half-life at 5 µM (Plasma stability, mouse) was > 1 h. For the same compound, the “Delay of tumor growth compared with vehicle” value (subcutaneous CT26 tumors; CT26, 1 mg/kg SC) was 4.0 days, the “Delay of tumor growth compared with vehicle” value (subcutaneous CT26 tumors; CT26, 4 mg/kg SC) was 21.0 days and the “Time mice remained tumor-free after the last dose” value (subcutaneous CT26 tumors; CT26, longest observation in any study) was “approximately 2.5 months”. The “Complete tumor suppression, initial CT26 tumor” value (subcutaneous CT26 tumors; Figure 5B study, three IT doses of 100 μg) was 100%, the “Delayed Response (TV > 10 and <2000 mm^3)” value (subcutaneous CT26 tumors; [6]) was 10% ^c and the “Treatment Failure (TV > 2000 mm^3)” value (subcutaneous CT26 tumors; [6]) was 44% ^c. The “Delayed Response (TV > 10 and <2000 mm^3)” value (subcutaneous CT26 tumors; [7]) was 0%, the “Treatment Failure (TV > 2000 mm^3)” value (subcutaneous CT26 tumors; [7]) was 10% and the “Complete Response (TV < 10 mm^3)” value (subcutaneous CT26 tumors; [8]) was 0%. The “Delayed Response (TV > 10 and <2000 mm^3)” value (subcutaneous CT26 tumors; [8]) was 0%, the “Treatment Failure (TV > 2000 mm^3)” value (subcutaneous CT26 tumors; [8]) was 100% and the “TV at end of study of animal with delayed response” value (subcutaneous CT26 tumors; Table 4 study, 100 μg IT) was 18 mm^3. The “Delayed Response (TV > 10 and <2000 mm^3)” value (subcutaneous CT26 tumors; Table 4 study, 100 μg IT) was 10% ^b, the “Treatment Failure (TV > 2000 mm^3)” value (subcutaneous CT26 tumors; Table 4 study, 100 μg IT) was 50% and the “Complete Response (TV < 10 mm^3)” value (subcutaneous CT26 tumors; Table 4 study, 100 μg IT, n = 10) was 40%. For the same compound, the “Median Time to Endpoint” value (subcutaneous CT26 tumors; Table 4 study, 100 μg IT) was 38.0 days, the “Delayed Response (TV > 10 and <2000 mm^3)” value (subcutaneous CT26 tumors; Table 4 study, 1 mg/kg SC) was 0% and the “Treatment Failure (TV > 2000 mm^3)” value (subcutaneous CT26 tumors; Table 4 study, 1 mg/kg SC) was 100%. The “Complete Response (TV < 10 mm^3)” value (subcutaneous CT26 tumors; Table 4 study, 1 mg/kg SC, n = 10) was 0%, the “Median Time to Endpoint” value (subcutaneous CT26 tumors; Table 4 study, 1 mg/kg SC) was 21.0 days and the “TV at end of study of animal with delayed response” value (subcutaneous CT26 tumors; Table 4 study, 4 mg/kg SC) was 1568 mm^3. For the same compound, the “Delayed Response (TV > 10 and <2000 mm^3)” value (subcutaneous CT26 tumors; Table 4 study, 4 mg/kg SC) was 10% ^a, the “Treatment Failure (TV > 2000 mm^3)” value (subcutaneous CT26 tumors; Table 4 study, 4 mg/kg SC) was 80% and the “Complete Response (TV < 10 mm^3)” value (subcutaneous CT26 tumors; Table 4 study, 4 mg/kg SC, n = 10) was 10%. The “Median Time to Endpoint” value (subcutaneous CT26 tumors; Table 4 study, 4 mg/kg SC) was 35.0 days, the half-life at 5 µM [4] was > 8 h and the “STING dependence of cellular activation (IRF reporter)” value ([5]; HEK 293 R232 cells vs control cells lacking STING expression, 24 hours) was “dependent on the expression of STING”. The EC50 ([5]; Homo sapiens, HEK293, read-out: Reporter Cell Assay EC50, STING Dual Null IRF) was > 100 µM.
